From patent US8445492B2, “Method for inhibiting growth of cancer cells and cell telomere and diseases of cell proliferation by using heteroannelated anthraquinone derivative compounds” (National Defense Medical Center, priority 2008, dated 2013)
Read-outs that look alike come from different tables or passages of the source.

Assays:
RPMI-8226 [1] = assay: cells; conditions: Homo sapiens, RPMI-8226
K-562 [2] = system: K-562
LOX IMV1 = assay: in vitro test at 1.0×10^−5 M, Skin cancer cell; format: cell-based; conditions: 1.0×10^−5 molal concentration (M)
MOLT-4 [3] = assay: cells; conditions: Homo sapiens, MOLT-4
DU-145 [4] = assay: cells; conditions: Homo sapiens, DU-145
HOP-92 = assay: cells; conditions: Homo sapiens, HOP-92
NCI-H460 [5] = system: NCI-H460
EKVX [6] = system: EKVX
[7] = system: different cancer cell lines; assay: in vitro test at 1.0×10^−5 M, summary over the cell lines; format: cell-based; design: unit not given here; conditions: 1.0×10^−5 molal concentration (M)
CCRF-CEM [8] = system: CCRF-CEM
HCC-2998 = assay: in vitro test at 1.0×10^−5 M, Colorectal cancer cell; format: cell-based; conditions: 1.0×10^−5 molal concentration (M)
NCI-H226 [9] = system: NCI-H226
HL-60(TB) = assay: cells; conditions: Homo sapiens, HL-60
PC-3 [10] = assay: cells; conditions: Homo sapiens, PC-3
HOP-62 [11] = system: HOP-62
K-562 [12] = assay: cells; conditions: Homo sapiens, K562
NCI-H226 [13] = assay: cells; conditions: Homo sapiens, NCI-H226
EKVX [14] = assay: cells; conditions: Homo sapiens
NCI-H23 [15] = system: NCI-H23
MOLT-4 [16] = system: MOLT-4
HS 578T = assay: in vitro test at 1.0×10^−5 M, Breast cancer cell; format: cell-based; conditions: 1.0×10^−5 molal concentration (M)
HOP-62 [17] = assay: cells; conditions: Homo sapiens, HOP-62
CCRF-CEM [18] = assay: cells; conditions: Homo sapiens
RPMI-8226 [19] = system: RPMI-8226
NCI-H460 [20] = assay: cells; conditions: Homo sapiens, NCI-H460
HOP-62 [21] = assay: in vitro test at 1.0×10^−5 M, Non-small cell lung cancer cell; format: cell-based; conditions: 1.0×10^−5 molal concentration (M)
DU-145 [22] = system: DU-145
PC-3 [23] = system: PC-3
NCI-H23 [24] = assay: cells; conditions: Homo sapiens, NCI-H23

CCc1nc2ccc3c(c2[nH]1)C(=O)c1ccccc1C3=O [No. 4, 2-Ethyl-1(3)H-anthra[1,2-d]imidazole-6,11-dione]
GI50 (RPMI-8226 [1]): 2.42 µM | TGI (K-562 [2]; K-562): >1.00E−4 | Percent Growth (K-562 [2]; Log10 Concentration −4.0): 48% | Percent Growth (K-562 [2]; Log10 Concentration −5.0): 63% | Percent Growth (K-562 [2]; Log10 Concentration −6.0): 87% | Percent Growth (K-562 [2]; Log10 Concentration −7.0): 92% | Percent Growth (K-562 [2]; Log10 Concentration −8.0): 94% | inhibition effect on cancer cell line (Table 2 value) (LOX IMV1): 39.98 | GI50 (MOLT-4 [3]): 9.31 µM | GI50 (DU-145 [4]): 5.62 µM | GI50 (HOP-92): 7.38 µM | Percent Growth (NCI-H460 [5]; Log10 Concentration −4.0): 2% | Percent Growth (NCI-H460 [5]; Log10 Concentration −5.0): 25% | Percent Growth (NCI-H460 [5]; Log10 Concentration −6.0): 74% | Percent Growth (NCI-H460 [5]; Log10 Concentration −7.0): 82% | Percent Growth (NCI-H460 [5]; Log10 Concentration −8.0): 84% | TGI (NCI-H460 [5]; NCI-H460): >1.00E−4 | TGI (EKVX [6]; EKVX): 9.43E−5 | Percent Growth (EKVX [6]; Log10 Concentration −5.0): 15% | Percent Growth (EKVX [6]; Log10 Concentration −6.0): 59% | Percent Growth (EKVX [6]; Log10 Concentration −7.0): 82% | Percent Growth (EKVX [6]; Log10 Concentration −8.0): 88% | TGI (A549/ATCC; A549/ATCC): >1.00E−4 | Percent Growth (A549/ATCC; Log10 Concentration −4.0): 17% | Percent Growth (A549/ATCC; Log10 Concentration −5.0): 60% | Percent Growth (A549/ATCC; Log10 Concentration −6.0): 97% | Percent Growth (A549/ATCC; Log10 Concentration −7.0): 100% | Percent Growth (A549/ATCC; Log10 Concentration −8.0): 91% | Mean [7]: 58.42 | TGI (CCRF-CEM [8]; CCRF-CEM): >1.00E−4 | Percent Growth (CCRF-CEM [8]; Log10 Concentration −4.0): 15% | Percent Growth (CCRF-CEM [8]; Log10 Concentration −5.0): 51% | Percent Growth (CCRF-CEM [8]; Log10 Concentration −6.0): 95% | Percent Growth (CCRF-CEM [8]; Log10 Concentration −7.0): 94% | Percent Growth (CCRF-CEM [8]; Log10 Concentration −8.0): 103% | inhibition effect on cancer cell line (Table 2 value) (HCC-2998): 67.67 | Percent Growth (NCI-H226 [9]; Log10 Concentration −4.0): 22% | Percent Growth (NCI-H226 [9]; Log10 Concentration −5.0): 63% | Percent Growth (NCI-H226 [9]; Log10 Concentration −6.0): 85% | Percent Growth (NCI-H226 [9]; Log10 Concentration −7.0): 89% | Percent Growth (NCI-H226 [9]; Log10 Concentration −8.0): 85% | TGI (NCI-H226 [9]; NCI-H226): >1.00E−4 | GI50 (HL-60(TB)): 7.53 µM | GI50 (PC-3 [10]): 14.4 µM | TGI (HOP-62 [11]; HOP-62): >1.00E−4 | Percent Growth (HOP-62 [11]; Log10 Concentration −4.0): 38% | Percent Growth (HOP-62 [11]; Log10 Concentration −5.0): 72% | Percent Growth (HOP-62 [11]; Log10 Concentration −6.0): 87% | Percent Growth (HOP-62 [11]; Log10 Concentration −7.0): 94% | Percent Growth (HOP-62 [11]; Log10 Concentration −8.0): 90% | GI50 (K-562 [12]): 78.3 µM | GI50 (NCI-H226 [13]): 20.8 µM | GI50 (EKVX [14]): 1.6 µM | Percent Growth (NCI-H23 [15]; Log10 Concentration −4.0): 21% | Percent Growth (NCI-H23 [15]; Log10 Concentration −5.0): 49% | Percent Growth (NCI-H23 [15]; Log10 Concentration −6.0): 74% | Percent Growth (NCI-H23 [15]; Log10 Concentration −7.0): 88% | Percent Growth (NCI-H23 [15]; Log10 Concentration −8.0): 92% | TGI (NCI-H23 [15]; NCI-H23): >1.00E−4 | Percent Growth (MOLT-4 [16]; Log10 Concentration −4.0): −1% | Percent Growth (MOLT-4 [16]; Log10 Concentration −5.0): 49% | Percent Growth (MOLT-4 [16]; Log10 Concentration −6.0): 93% | Percent Growth (MOLT-4 [16]; Log10 Concentration −7.0): 96% | Percent Growth (MOLT-4 [16]; Log10 Concentration −8.0): 98% | TGI (MOLT-4 [16]; MOLT-4): 9.51E−5 | inhibition effect on cancer cell line (Table 2 value) (HS 578T): −18.58 | GI50 (HOP-62 [17]): 44.2 µM | GI50 (CCRF-CEM [18]): 10.9 µM | Percent Growth (RPMI-8226 [19]; Log10 Concentration −4.0): −12% | Percent Growth (RPMI-8226 [19]; Log10 Concentration −5.0): 12% | Percent Growth (RPMI-8226 [19]; Log10 Concentration −6.0): 73% | Percent Growth (RPMI-8226 [19]; Log10 Concentration −7.0): 81% | Percent Growth (RPMI-8226 [19]; Log10 Concentration −8.0): 97% | TGI (RPMI-8226 [19]; RPMI-8226): 3.21E−5 | GI50 (NCI-H460 [20]): 3.07 µM | Percent Growth (NCI-H522; Log10 Concentration −4.0): 32% | Percent Growth (NCI-H522; Log10 Concentration −5.0): 54% | Percent Growth (NCI-H522; Log10 Concentration −6.0): 87% | Percent Growth (NCI-H522; Log10 Concentration −7.0): 88% | Percent Growth (NCI-H522; Log10 Concentration −8.0): 89% | TGI (NCI-H522; NCI-H522): >1.00E−4 | inhibition effect on cancer cell line (Table 2 value) (HOP-62 [21]): 97.73 | TGI (DU-145 [22]; DU-145): >1.00E−4 | Percent Growth (DU-145 [22]; Log10 Concentration −4.0): 24% | Percent Growth (DU-145 [22]; Log10 Concentration −5.0): 37% | Percent Growth (DU-145 [22]; Log10 Concentration −6.0): 88% | Percent Growth (DU-145 [22]; Log10 Concentration −7.0): 98% | Percent Growth (DU-145 [22]; Log10 Concentration −8.0): 98% | Percent Growth (PC-3 [23]; Log10 Concentration −4.0): 29% | Percent Growth (PC-3 [23]; Log10 Concentration −5.0): 54% | Percent Growth (PC-3 [23]; Log10 Concentration −6.0): 93% | Percent Growth (PC-3 [23]; Log10 Concentration −7.0): 100% | Percent Growth (PC-3 [23]; Log10 Concentration −8.0): 96% | TGI (PC-3 [23]; PC-3): >1.00E−4 | GI50 (NCI-H23 [24]): 9.17 µM
